≈ marks a conversion by molar mass, not a printed value.
Tests used:
[1] = Dynamic solubility in different media (HPLC); type: physicochemical; details: for Solubility / Crystalline Form Change / pH: 24 h; for Solubility: 37°C; for Crystalline Form Change: XRPD of precipitated solids; for pH: pH of supernatant; for solubility at 24 h: 37 °C, thermodynamic from solid
Method: The preparation method of simulated gastrointestinal fluid involved in the present disclosure is: SGF: Transfer 2.02 g of sodium chloride into a 1000 mL beaker and add 950 mL of purified water to dissolve. Next, adjust the pH to 1.2 with 12 N hydrochloric acid. Transfer the solution to a 1000 mL volumetric flask and make up to 1000 mL with purified water.
FeSSIF: Transfer 4.04 g of sodium hydroxide, 8.65 g of acetic acid, and 11.87 g of sodium chloride into a 1000 mL volumetric flask, and dissolve with 950 mL of purified water. Titrate the obtained solution to pH 5.0 with 1M sodium hydroxide or 1M hydrochloric acid aqueous solution, and then make up to 1000 mL with purified water. Finally, weigh 11.20 g of SIF powder, add it to the above 1000 mL of pH 5.0 solution, and stir magnetically until clear.
(§1) A total of 10 mg of maleate crystalline form A was transferred into a dry, clean 4 mL glass vial. Then, 1 mL of simulated gastric fluid (SGF), fed state simulated intestinal fluid (FeSSIF), or purified water was added to the vial. All vials were placed on a shaker and agitated at 200 rpm at 37°C.
At the predetermined time point (24 h), 200 µL of the sample was withdrawn from the vial into a centrifuge tube and centrifuged at 90,000 rpm for 5 min. An appropriate amount of the supernatant was then diluted and analyzed by HPLC to determine the solubility.
The remaining 800 µL of suspension in the vial was centrifuged at 8000 rpm for 10 min. The pH of the resulting supernatant was measured, and the precipitated solids were vacuum-dried at 40°C for approximately 16 h. The dried precipitated solids were then characterized by X-ray powder diffraction.
as §1, with “p-toluenesulfonate” for “maleate”
At the predetermined time point (24 h), 200 µL of the sample was withdrawn from the vial into a centrifuge tube and centrifuged at 90,000 rpm for 5 min. An appropriate amount of the supernatant was then diluted and analyzed by high performance liquid chromatography to determine the solubility.

[2] = Hygroscopicity by dynamic vapor sorption (DVS) test; type: physicochemical; details: for hygroscopic weight gain: DVS, 25°C, from 0% RH to 80% RH; for crystalline form after the DVS test: XRPD before and after DVS test
Method: Moisture adsorption and desorption data were obtained using a dynamic vapor sorption device (Model TA Discovery SA). Samples were equilibrated at 25°C/0% RH for 300 min at the start of the experiment. Thereafter, humidity was varied from 0% to 95% RH in 5% RH increments, with nitrogen used to control and maintain the humidity. Equilibration during testing was defined as a mass change rate of < 0.02% per minute over 10 min, with a maximum equilibration time of 120 min.
From 0% RH to 80% RH, the hygroscopic weight gain was approximately 0.25%, indicating very low hygroscopicity.

[3] = Physicochemical stability on open storage (XRPD and HPLC); details: for Crystalline Form Change: merged cell for all storage conditions (40°C/75%RH, 60 °C, 25°C/60%RH, open) and times (2 and 4 weeks), XRPD
Method: The high performance liquid chromatography (HPLC) method for determining enantiomeric excess (%) used in the present application is shown in Table 5.
The purity testing method described in the present application is shown as follows.
(§2) For chemical stability studies, two open samples were prepared at each time point for each condition. Approximately 2 mg of maleate crystalline form A was transferred into a 20 mL glass vial, which was then covered with perforated aluminum foil to serve as an open sample. Samples were stored at 25°C/60% RH, 40°C/75% RH, and 60°C.
as §2, with “For physical” for “For chemical”, “Approximately 10” for “Approximately 2”, “was” for “was then”
All samples were stored for 4 weeks under the specified storage conditions. At predetermined time points (initial, 2 weeks, and 4 weeks), the corresponding samples were withdrawn and subject to chemical and physical evaluations, respectively. The physicochemical stability was assessed by XRPD and HPLC.
as §2, with “p-toluenesulfonate” for “maleate”
as §2, with “For physical” for “For chemical”, “Approximately 10” for “Approximately 2”, “of p-toluenesulfonate” for “of maleate”, “was” for “was then”, “and 60°C, respectively.” for “and 60°C.”

[4] = Mechanical stability: jet milling; type: physicochemical; details: feed and milling pressure 5.5 bar, 23 °C; XRPD
Method: The milled powder was then analyzed by XRPD and PLM, with results shown in Figure 27 and Figure 28, respectively.

[5] = Mechanical stability: pressurization method; type: physicochemical; details: 40 MPa held for 1 min, 5 mm die; XRPD
Method: Pressurization method: Maleate crystalline form A was weighed and transferred into a 5 mm-diameter die. The upper piston was then manually driven down into the die until a pressure of 40 MPa was reached and held for 1 min. Subsequently, the sample was removed and manually ground into a powder. Finally, the resulting powder was analyzed by XRPD.

[6] = Stability of the crystalline form in the formulation (tablet compression with microcrystalline cellulose); type: physicochemical; details: 50% (w/w) with microcrystalline cellulose PH102, tablets compressed at 4.2 kN and 9.2 kN; XRPD
Method: Equal amounts of maleate crystalline form A and microcrystalline cellulose PH102 were weighed to prepare a powder formulation comprising 50% (w/w) maleate crystalline form A, and the two components were mixed thoroughly.
A total of 200 mg of the uniformly mixed powder was transferred into an 8 mm-diameter die of a rotary tablet press. One tablet was compressed at 4.2 kN and another at 9.2 kN.
The resulting tablets were characterized for weight and hardness.

Row | Crystalline Form Change ([1]; FeSSIF) | Solubility ([1]; H2O) [µg/mL] | Crystalline Form Change ([1]; H2O) | Crystalline Form Change ([1]; SGF) | pH ([1]; FeSSIF) | pH ([1]; H2O) | pH ([1]; SGF) | hygroscopic weight gain [2] | crystalline form after the DVS test [2] | Appearance ([3]; 25°C/60%RH (Open), 2 weeks) | Purity (%) ([3]; 25°C/60%RH (Open), 2 weeks) | ee (%) ([3]; 25°C/60%RH (Open), 2 weeks) | Appearance ([3]; 25°C/60%RH (Open), 4 weeks) | Purity (%) ([3]; 25°C/60%RH (Open), 4 weeks) | ee (%) ([3]; 25°C/60%RH (Open), 4 weeks) | Appearance ([3]; 40°C/75%RH (Open), 2 weeks) | Purity (%) ([3]; 40°C/75%RH (Open), 2 weeks) | ee (%) ([3]; 40°C/75%RH (Open), 2 weeks) | Appearance ([3]; 40°C/75%RH (Open), 4 weeks) | Purity (%) ([3]; 40°C/75%RH (Open), 4 weeks) | SMILES | other results
1 | None | 248.78 (≈ 582 µM) | None | None | 4.78 | 3.19 | 0.98 | approximately 0.37% | did not change | Off-white powder | 99.83 | 100.00 | Off-white powder | 99.84 | 100.00 | Off-white powder | 99.84 | 100.00 | Off-white powder | 99.80 | CN(C(=O)c1ccc2nc(N)c3cncn3c2c1)[C@@H]1COc2cc(C(F)(F)F)ccc21 [p-toluenesulfonate crystalline form A, (S)-4-amino-N-methyl-N-(6-(trifluoromethyl)-2,3-dihydrobenzofuran-3-yl)imidazo[1,5-a]quinoxaline-8-carboxamide] | Solubility ([1]; FeSSIF): 365.38 µg/mL (≈ 855 µM); Solubility ([1]; SGF): 293.98 µg/mL (≈ 688 µM); ee (%) ([3]; 40°C/75%RH (Open), 4 weeks): 100.00%; Appearance ([3]; 60 °C (Open), 2 weeks): Off-white powder; Purity (%) ([3]; 60 °C (Open), 2 weeks): 99.66%; ee (%) ([3]; 60 °C (Open), 2 weeks): 100.00%; Appearance ([3]; 60 °C (Open), 4 weeks): Off-white powder; Purity (%) ([3]; 60 °C (Open), 4 weeks): 99.50%; ee (%) ([3]; 60 °C (Open), 4 weeks): 100.00%; Appearance ([3]; Initial): Off-white powder; Purity (%) ([3]; Initial): 99.81%; ee (%) ([3]; Initial): 100.00%; Crystalline Form Change [3]: None
2 | None | 42.12 | None | None | 4.83 | 4.17 | 0.96 | approximately 0.25% | did not change | Off-white powder | 99.68 | 100.00 | Off-white powder | 99.67 | 100.00 | Off-white powder | 99.69 | 100.00 | Off-white powder | 99.67 | CN(C(=O)c1ccc2nc(N)c3cncn3c2c1)[C@@H]1COc2cc(C(F)(F)F)ccc21 [Maleate crystalline form A, (S)-4-amino-N-methyl-N-(6-(trifluoromethyl)-2,3-dihydrobenzofuran-3-yl)imidazo[1,5-a]quinoxaline-8-carboxamide] | crystalline form after jet milling [4]: retained its crystalline form; crystalline form after pressurization [5]: retained its crystalline form; solubility at 24 h ([1]; fed state simulated intestinal fluid (FeSSIF), pH 5, fessif, FeSSIF): 258 µg/mL; solubility at 24 h ([1]; simulated gastric fluid (SGF), pH 1.2, simulated gastric fluid, SGF): 443 µg/mL; ee (%) ([3]; 40°C/75%RH (Open), 4 weeks): 100.00%; Appearance ([3]; 60 °C (Open), 2 weeks): Off-white powder; Purity (%) ([3]; 60 °C (Open), 2 weeks): 99.69%; ee (%) ([3]; 60 °C (Open), 2 weeks): 100.00%; Appearance ([3]; 60 °C (Open), 4 weeks): Off-white powder; Purity (%) ([3]; 60 °C (Open), 4 weeks): 99.67%; ee (%) ([3]; 60 °C (Open), 4 weeks): 100.00%; Appearance ([3]; Initial): Off-white powder; Purity (%) ([3]; Initial): 99.66%; ee (%) ([3]; Initial): 100.00%; Crystalline Form Change [3]: None; crystallinity in the formulation [6]: remained relatively stable
